For data set [1], the target named is T1, SMOX (Homo sapiens, UniProt Q9NWM0).
T1 construct: using 0.3 µg/mL of purified SMOX enzyme and 2 mM of spermine substrate
Particulars: cited from earlier work.

Data set [2] has as its target T1, SMOX. In words: SMOX enzyme activity, HRP-luminol chemiluminescence assay. Type of data set: biochemical. Particulars: 2 mM spermine; for inhibition at 20 µM: 20 µM compound, no pre-incubation, triplicate, read-out: % Inhibition at 20 μM ± SD, SMOX; for IC50: AUC over 60 s, pH 8. The protocol: As the catabolism of spermine by SMOX results in the stoichiometric production of H2O2, enzyme activity was quantified by chemiluminescence generated by the horseradish peroxidase-catalyzed oxidation of luminol in 96-well plates (Costar #3912; white, flat bottom), as previously described. All assays were performed in 0.083 M glycine buffer at a pH of 8 using 0.3 µg/mL of purified SMOX enzyme and 2 mM of spermine substrate. Phosphate buffer was not used to prevent the formation of polyamine–phosphate complexes. Enzyme reactions were initiated by the addition of SMOX and HRP to all other assay components; inhibitors were not pre-incubated with enzyme. Triplicate determinations were obtained for each measurement by recording the luminescence (AUC) over 60 s. Hit compounds were then confirmed by monitoring the assay over 600 s. Each triplicate assay point contained a 4th control well to monitor and normalize the data with regards to luminescent decay over time. The compounds were initially screened for activity at a concentration of 20 µM. […] The known SMOX inhibitor, MDL-72527, was used as a control. The hit compounds were then characterized by IC50 and kinetic analyses. Percent inhibition values are reported as triplicate mean % SMOX inhibition ± SD compared to the vehicle control. IC50 values were calculated in GraphPad Prism 9.3 software (Graph-Pad, San Diego, California) using a non-linear regression analysis ([Inhibitor] vs. normalized response—variable slope). Data for all enzyme assays were generated using a SpectraMax M5 plate reader (Molecular Devices) equipped with SOFTmax PRO 7.0.3 software.

Data set [3] deals with T2, LSD1 (Homo sapiens, UniProt O60341).
T2 construct: purchased Cayman Chemical #700120
Briefly: LSD1 selectivity assay (Cayman kit, resorufin fluorescence). It is filed as biochemical. Conditions: read-out: % Inhibition at 20 μM ± SD, LSD1.

Data set [4] addresses T3, recombinant human MAO-A (Homo sapiens, UniProt P21397).
T3 construct: purchased Sigma-Aldrich M7316-1VL
T3 sequence (P21397 1-527): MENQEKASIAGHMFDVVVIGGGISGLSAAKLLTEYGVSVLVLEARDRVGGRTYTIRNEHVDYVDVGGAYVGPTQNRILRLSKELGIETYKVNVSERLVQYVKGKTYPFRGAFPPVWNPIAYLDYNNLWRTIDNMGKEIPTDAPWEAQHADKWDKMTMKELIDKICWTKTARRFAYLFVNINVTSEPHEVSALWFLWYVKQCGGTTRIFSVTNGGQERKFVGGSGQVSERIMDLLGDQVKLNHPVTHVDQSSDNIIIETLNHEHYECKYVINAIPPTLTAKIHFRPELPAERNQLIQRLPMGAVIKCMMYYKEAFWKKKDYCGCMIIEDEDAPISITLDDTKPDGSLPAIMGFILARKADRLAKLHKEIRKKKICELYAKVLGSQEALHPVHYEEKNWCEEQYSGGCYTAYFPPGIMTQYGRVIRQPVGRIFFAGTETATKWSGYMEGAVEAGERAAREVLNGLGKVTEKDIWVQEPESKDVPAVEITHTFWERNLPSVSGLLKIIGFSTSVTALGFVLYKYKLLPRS
In words: MAO-Glo assay, MAO-A. It is filed as biochemical. Conditions: for inhibition at 20 µM: read-out: % Inhibition at 20 μM ± SD, MAO-A. The protocol:
(§1) To determine selectivity, the compounds were tested for activity against the related FAD-dependent amine oxidase enzymes LSD1, MAO-A, and MAO-B. LSD1 activity was assessed using a commercially available assay kit (#700120, Cayman Chemical, Ann Arbor, MI, USA), in which the enzyme activity was determined by the horseradish peroxidase-catalyzed oxidation of 10-acetyl-3,7-dihydroxyphenoxazine to the highly fluorescent resorufin in response to H2O2 production. Monoamine oxidase activity was determined using recombinant human MAO-A and MAO-B (M7316-1VL & M7441-1VL, Sigma-Aldrich, St. Louis, MO, USA) and a commercially available assay kit (#V1401, MAO-Glo, Promega, Madison, WI, USA), which utilizes the MAO-catalyzed oxidation of a luciferin derivative coupled with esterase activity to produce luminescence. Fluorescent and luminescent readout was obtained using a SpectraMax M5 plate reader (Molecular Devices) equipped with SOFTmax PRO 7.0.3 software. […] Values were reported as mean % inhibition ± SD of triplicate assay wells normalized to background activity and compared to the vehicle control.

Data set [5] concerns the target T4, recombinant human MAO-B (Homo sapiens, UniProt P27338).
T4 construct: purchased Sigma-Aldrich M7441-1VL
T4 sequence (P27338 1-520): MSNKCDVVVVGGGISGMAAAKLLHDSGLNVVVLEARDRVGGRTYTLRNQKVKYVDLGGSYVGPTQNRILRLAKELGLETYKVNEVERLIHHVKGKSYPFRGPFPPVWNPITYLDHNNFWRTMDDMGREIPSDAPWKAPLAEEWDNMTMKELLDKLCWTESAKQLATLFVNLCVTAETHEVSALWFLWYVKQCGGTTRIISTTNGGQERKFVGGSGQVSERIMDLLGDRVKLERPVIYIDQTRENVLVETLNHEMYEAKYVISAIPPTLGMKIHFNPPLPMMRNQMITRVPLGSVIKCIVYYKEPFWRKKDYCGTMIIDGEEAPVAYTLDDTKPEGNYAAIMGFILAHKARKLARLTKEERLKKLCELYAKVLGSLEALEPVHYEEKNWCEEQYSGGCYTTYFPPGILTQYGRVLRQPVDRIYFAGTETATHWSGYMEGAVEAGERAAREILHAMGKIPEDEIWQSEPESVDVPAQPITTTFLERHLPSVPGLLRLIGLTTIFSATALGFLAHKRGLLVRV
In words: MAO-Glo assay, MAO-B. Particulars: for inhibition at 20 µM: read-out: % Inhibition at 20 μM ± SD, MAO-B. It is filed as biochemical. On the procedure: as §1

The target of data set [6] is T1, SMOX. In words: Mechanism of inhibition and enzyme kinetics (Lineweaver–Burk, global fit). It is filed as biochemical. On the procedure: The mechanism of enzyme inhibition was determined using the HRP-luminol coupled enzyme assay described above. Reaction velocity (max RLU/sec over 10 min) was measured across multiple substrate and inhibitor concentrations, and individual triplicate values were plotted using a Lineweaver–Burk transformation (double-reciprocal) in GraphPad Prism 9.3 software (Graph-Pad, San Diego, CA, USA).

Data set [7] can be described thus: Cytotoxicity analysis, MTS assay. Type of data set: cell-based. Particulars: human, SH-SY5Y neuroblastoma cells, MTS. The protocol:
(§2) SH-SY5Y neuroblastoma cells purchased from ATCC (Manassas, VA, USA) were cultured in Dulbecco’s modified Eagle medium (DMEM) without phenol red and supplemented with 10% heat inactivated human AB serum, 4 mM L-glutamine, and 1% penicillin/streptomycin. As the oxidation of spermine by various polyamine oxidases has been documented in cell culture containing ruminant serum, such as in fetal bovine serum (FBS) and horse serum, human AB serum was used to prevent assay interference. The cells were maintained in 5% CO2 humidified atmosphere at 37 °C. Cell media was replaced every 2 days and the cells were discarded after a maximum of 15 passages.
(§3) The SH-SY5Y neuroblastoma cells were plated in 96-well plates at a density of 30,000 cells/well and allowed to reach 80% confluence, followed by treatment with varying concentrations of inhibitor ranging from 0 to 10 mM for 12 h. Cell viability was assessed by standard MTS assay, in which MTS reagent was added to each well at a concentration of 0.33 mg/mL and incubated at 37 °C for 3 h. Viability was monitored and confirmed by a visual inspection of the cells. Absorbance was read at 490 nm and the absorbance values were normalized to background wells containing varying concentrations of inhibitor, cell media, and MTS reagent. Colorimetric readout was obtained using a SpectraMax M5 plate reader (Molecular Devices) equipped with SOFTmax PRO 7.0.3 software.
A general note: Tetrazolium dyes change colour on reduction, which living cells bring about.

Data set [8] deals with SH-SY5Y neuroblastoma cells. In words: Cytotoxicity analysis, MTS assay. It is filed as cell-based. Particulars: doses below 1 mM. The protocol: as §2, §3

Like-named read-outs stand apart in the source and are kept apart here.

T1 sequence (Q9NWM0 whole entry): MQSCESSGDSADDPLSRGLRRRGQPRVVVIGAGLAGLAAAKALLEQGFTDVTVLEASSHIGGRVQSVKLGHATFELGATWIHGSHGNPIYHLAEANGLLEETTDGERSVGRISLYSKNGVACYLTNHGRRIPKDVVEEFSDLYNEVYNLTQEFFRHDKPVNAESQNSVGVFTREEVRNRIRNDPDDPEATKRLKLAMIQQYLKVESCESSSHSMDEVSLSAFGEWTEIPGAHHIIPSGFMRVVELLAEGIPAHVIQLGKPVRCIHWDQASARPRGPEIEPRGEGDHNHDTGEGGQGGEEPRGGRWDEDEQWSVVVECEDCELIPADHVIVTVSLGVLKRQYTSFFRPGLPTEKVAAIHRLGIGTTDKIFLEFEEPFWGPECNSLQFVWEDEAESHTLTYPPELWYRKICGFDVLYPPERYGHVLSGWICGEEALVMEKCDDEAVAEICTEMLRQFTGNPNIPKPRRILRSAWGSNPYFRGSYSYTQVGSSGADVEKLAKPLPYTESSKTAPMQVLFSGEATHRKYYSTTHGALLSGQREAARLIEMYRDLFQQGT

In general, Ki refers to a measure of affinity in units of concentration, obtained from inhibition or displacement. On to `COc1ccccc1CNCCCCCCNCCCCCCCCNCCCCCCNCc1ccccc1OC` [methoctramine], for which the Ki in data set [1] was 1.2 µM.
For orientation: inhibition means the relative decrease from the control value, in per cent. One may read the IC50 as the concentration needed to halve the response being measured. As to `N=C(N)NCCCNCC(O)c1ccc(O)c(O)c1` (stereo not drawn) [Compound 5], the inhibition at 20 µM in data set [2] was determined as 96.3 ± 0.1%; in data set [3] it was 46.2 ± 25.7%; in data set [4] it was 7.3 ± 0.7%; in data set [5] it was 4.5 ± 9.5%. For the same compound, the IC50 in data set [2] is 0.47 µM.
Consider `CC(C)=CCNC(=N)NCCCCN` [N-prenylagmatine], for which the “Mechanism of inhibition of SMOX” value in data set [1] is “competitive inhibitors”.
Consider `N=C(N)NCCCCCCCCNCCCCCCCCNC(=N)N` [guazatine], for which the “Mechanism of inhibition of SMOX” value in data set [1] was “competitive inhibitors”.
For the compound `N=C(N)NCCCNCC(O)c1cc(O)cc(O)c1` (stereo not drawn) [Compound 2], the inhibition at 20 µM in data set [2] was 93.6 ± 1%; in data set [3], -18.7 ± 9.8%; in data set [4], -5.5 ± 4.2%; in data set [5], 3.5 ± 1.3%. In data set [2], half-maximal inhibition (IC50) was put at 8.3 µM.
As a reminder, the % Inhibition is the relative decrease from the control value, in per cent. For the compound `N=C(N)NCCCNCC(O)c1cc(O)ccc1O` (stereo not drawn) [Compound 7], the inhibition at 20 µM in data set [2] was 99.9 ± 0.1%; in data set [3], greater than 73%; in data set [4], 45%; in data set [5] it was 29%. The compound also showed a half-maximal inhibitory concentration (IC50) in data set [2] of 0.23 µM. Moreover, the Mechanism of inhibition entry in data set [6] (Lineweaver–Burk analysis) is listed as “competitive”. Moreover, the Ki in data set [6] (global fit for competitive inhibition, inhibitor 0, 0.1, 1 µM) was determined as 0.46 µM. Besides, the “% Inhibition at 20 μM ± SD, MAO-A” value in data set [4] is on record as 45.1 ± 7.7%. The “% Inhibition at 20 μM ± SD, MAO-B” value in data set [5] was found to be 29.1 ± 2.1%. Also, in data set [7] (12 h, read-out: LC50), the CC50 at 12 h is 130 µM.
In the case of `N[C@@H]1C[C@H]1c1ccccc1` (racemic) [TCP, Tranylcypromine, reference compound], in data set [4], the “% Inhibition at 20 μM ± SD, MAO-A” value is given as 92.6 ± 0.2%.
Take `N=C(N)NCCCCNCC(O)c1cc(O)cc(O)c1` (stereo not drawn) [Compound 3]: the inhibition at 20 µM in data set [2] is 96.7 ± 0.2%; in data set [3] it was 41.6 ± 24.4%; in data set [4] it was -13.7 ± 4.6%; in data set [5] it was -16.9 ± 12.3%. The same compound gave an IC50 in data set [2] of 6.02 µM.
On to `[H]/N=C(\N/C(=N/[H])NCCCCCCNC(=N)NC(=N)Nc1ccc(Cl)cc1)Nc1ccc(Cl)cc1` [chlorhexidine], for which, in data set [1], the Ki is 0.55 to 3.8 µM and the “Mechanism of inhibition of SMOX” value was “competitive inhibitors”.
For `C=C=CCNCCCCNCC=C=C` [MDL-72527, N^1,N^4-bis(2,3-butadienyl)-1,4-butanediamine], in data set [2], the inhibition at 20 µM was determined as 10.2 ± 0.9%. Besides, in data set [1], the IC50 is 89 to 100 µM, the Ki was 63 µM and the “Mechanism of inhibition of SMOX” value is recorded as “irreversible inhibitor”.
As for `N=C(N)NCCNCC(O)c1ccc(O)c(O)c1` (stereo not drawn) [Compound 4], the inhibition at 20 µM in data set [2] was 95.7 ± 0.3%; in data set [3] it was 31.9 ± 12.6%; in data set [4], 15.5 ± 0.5%; in data set [5], 12.6 ± 1.6%. The same compound gave an IC50 in data set [2] of 0.23 µM. Further, in data set [7] (12 h post treatment, read-out: LC50 (dose corresponding to 50% viability)), the CC50 at 12 h came out at 3600 µM. Besides, the “Toxicity after 12-h exposure” value in data set [8] is “did not produce significant toxicity”.

The record behind these values is paper PMC9504029, “Identification and Characterization of Novel Small-Molecule SMOX Inhibitors” (Medical Sciences, 2022).
